Experimental data reported in patent publication US9382254B2, “Compounds and pharmaceutical compositions thereof for the treatment of cystic fibrosis” (Galapagos NV, priority 2013, dated 2016).
Read-outs that look alike come from different tables or passages of the source.

Key:
Format in all cases: cell-based
CFTR G551D mutant = biological target: T1, CFTR G551D mutant (Homo sapiens, UniProt P13569, G551D); assay: YFP-halide influx assay for the CFTR-G551D mutation; conditions: HEK293 cells, forskolin 10.67 μM
T1 construct: expressed in transfected cells; host or cells: HEK293 (reverse transfection with plasmid)
T1 sequence (P13569 whole entry G551D): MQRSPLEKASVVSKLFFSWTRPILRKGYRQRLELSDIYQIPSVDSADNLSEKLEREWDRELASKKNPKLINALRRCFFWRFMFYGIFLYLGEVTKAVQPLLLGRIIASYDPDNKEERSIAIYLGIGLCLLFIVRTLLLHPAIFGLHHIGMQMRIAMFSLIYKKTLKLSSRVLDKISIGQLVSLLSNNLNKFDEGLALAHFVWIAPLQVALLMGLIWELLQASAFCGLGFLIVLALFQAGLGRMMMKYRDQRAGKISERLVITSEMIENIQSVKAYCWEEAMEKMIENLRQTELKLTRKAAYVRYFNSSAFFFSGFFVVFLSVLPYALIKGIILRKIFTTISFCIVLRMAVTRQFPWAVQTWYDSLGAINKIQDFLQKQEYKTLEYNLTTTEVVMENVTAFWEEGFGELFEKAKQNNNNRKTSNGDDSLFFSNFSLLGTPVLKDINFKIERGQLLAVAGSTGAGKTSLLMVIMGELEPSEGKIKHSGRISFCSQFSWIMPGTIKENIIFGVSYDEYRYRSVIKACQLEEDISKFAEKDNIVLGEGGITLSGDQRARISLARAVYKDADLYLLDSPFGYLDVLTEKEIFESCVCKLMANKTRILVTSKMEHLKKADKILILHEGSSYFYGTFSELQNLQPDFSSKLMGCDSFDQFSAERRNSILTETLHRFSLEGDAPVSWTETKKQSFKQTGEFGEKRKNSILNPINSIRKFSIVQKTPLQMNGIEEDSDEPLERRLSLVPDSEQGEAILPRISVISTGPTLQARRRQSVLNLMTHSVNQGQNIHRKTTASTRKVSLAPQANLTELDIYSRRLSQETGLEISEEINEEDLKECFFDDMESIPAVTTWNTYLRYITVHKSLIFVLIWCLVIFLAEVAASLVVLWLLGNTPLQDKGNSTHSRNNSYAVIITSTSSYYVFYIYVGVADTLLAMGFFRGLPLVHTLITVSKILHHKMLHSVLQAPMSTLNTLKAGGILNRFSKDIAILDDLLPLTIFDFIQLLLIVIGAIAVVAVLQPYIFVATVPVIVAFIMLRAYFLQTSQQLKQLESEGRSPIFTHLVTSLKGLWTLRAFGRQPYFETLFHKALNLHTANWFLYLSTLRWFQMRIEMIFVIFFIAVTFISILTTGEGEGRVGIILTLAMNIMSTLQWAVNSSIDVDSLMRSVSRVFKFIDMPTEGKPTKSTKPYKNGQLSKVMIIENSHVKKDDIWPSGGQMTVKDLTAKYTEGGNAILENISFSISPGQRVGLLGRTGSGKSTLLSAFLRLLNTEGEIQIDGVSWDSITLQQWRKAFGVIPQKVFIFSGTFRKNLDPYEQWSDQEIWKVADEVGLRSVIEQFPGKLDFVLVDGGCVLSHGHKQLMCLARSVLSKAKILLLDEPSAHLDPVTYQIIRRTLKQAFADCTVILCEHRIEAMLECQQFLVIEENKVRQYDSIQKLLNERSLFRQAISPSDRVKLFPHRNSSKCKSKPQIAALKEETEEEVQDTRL
In short: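 HEK293 cells reverse-transfected with CFTR G551D and YFP H148Q/I152L/F47L halide sensor, expressed 24 h at 37 °C. Iodide-induced fluorescence quench recorded 7 s after I− injection; response = 1−F/F0, with EC50 from plot against compound concentration.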

CFTR-G1349D = biological target: T2, CFTR-G1349D (Homo sapiens, UniProt P13569, G1349D); assay: YFP-halide influx assay for the CFTR-G1349D
T2 construct: expressed in transfected cells
T2 sequence (P13569 whole entry G1349D): as the sequence (P13569 whole entry G551D) above, with D551G, G1349D counted along it
Description: (§1) The YFP halide influx assay measures the functionality of the cystic fibrosis Transmembrane Conductance regulator (CFTR) channels. The assay is used to evaluate the capacity of compounds to increase the channel opening of existing mutant CFTR channels in the membrane. It makes use of the observation that the yellow fluorescent protein (YFP) variant YFP H148Q, I152L, […] has its fluorescence substantially quenched by halide ions like Cl^− and I^−. (Galietta, Haggie, & Verkman, 2001)
(§2) For this purpose, HEK293-cells are seeded in 96 well plates. During seeding, the cells are reverse-transfected with plasmid vectors that direct the expression of the CFTR G551D mutant and of the YFP reporter. Cells are incubated at 37° C., 5% CO2 for 24 hours so as to allow for sufficient expression of the CFTR protein.
(§3) The I^−-induced quenching of fluorescence is recorded immediately after injection of I^− for 7 seconds. The capacity of a compound to increase the channel opening is directly correlated with the decrease in fluorescence, and is expressed as (1-(fluorescence after 7 seconds (F)/fluorescence before injection (F0))) and an EC50 can be derived from a (1-F/F0) vs compound concentration plot.
(§4) Similar YHA assays were developed for other channel gating defective or channel conductance defective CFTR mutants to determine effect of compound on channel activity. Examples of mutants are G178R, G1349D, S549N, R117H, R334W. This assay is also used for additional class I CFTR mutants, including G542X, W1282X; class II mutants including N1303K, and for class III mutants including S1251N.

CFTR ΔF508 mutant = biological target: T3, CFTR ΔF508 mutant (Homo sapiens, UniProt P13569, DEL508-508); assay: YFP-halide influx assay for the CFTR-ΔF508 mutation (384 well, FDSS/μCell); conditions: CFBE41o- cells, CFTR-ΔF508, 1×D-PBS, fluorescence after 36 seconds
T3 construct: expressed in transfected cells; host or cells: CFBE41o- (adenoviral transduction)
T3 sequence (P13569 with tags, fused parts or gaps DEL508-508): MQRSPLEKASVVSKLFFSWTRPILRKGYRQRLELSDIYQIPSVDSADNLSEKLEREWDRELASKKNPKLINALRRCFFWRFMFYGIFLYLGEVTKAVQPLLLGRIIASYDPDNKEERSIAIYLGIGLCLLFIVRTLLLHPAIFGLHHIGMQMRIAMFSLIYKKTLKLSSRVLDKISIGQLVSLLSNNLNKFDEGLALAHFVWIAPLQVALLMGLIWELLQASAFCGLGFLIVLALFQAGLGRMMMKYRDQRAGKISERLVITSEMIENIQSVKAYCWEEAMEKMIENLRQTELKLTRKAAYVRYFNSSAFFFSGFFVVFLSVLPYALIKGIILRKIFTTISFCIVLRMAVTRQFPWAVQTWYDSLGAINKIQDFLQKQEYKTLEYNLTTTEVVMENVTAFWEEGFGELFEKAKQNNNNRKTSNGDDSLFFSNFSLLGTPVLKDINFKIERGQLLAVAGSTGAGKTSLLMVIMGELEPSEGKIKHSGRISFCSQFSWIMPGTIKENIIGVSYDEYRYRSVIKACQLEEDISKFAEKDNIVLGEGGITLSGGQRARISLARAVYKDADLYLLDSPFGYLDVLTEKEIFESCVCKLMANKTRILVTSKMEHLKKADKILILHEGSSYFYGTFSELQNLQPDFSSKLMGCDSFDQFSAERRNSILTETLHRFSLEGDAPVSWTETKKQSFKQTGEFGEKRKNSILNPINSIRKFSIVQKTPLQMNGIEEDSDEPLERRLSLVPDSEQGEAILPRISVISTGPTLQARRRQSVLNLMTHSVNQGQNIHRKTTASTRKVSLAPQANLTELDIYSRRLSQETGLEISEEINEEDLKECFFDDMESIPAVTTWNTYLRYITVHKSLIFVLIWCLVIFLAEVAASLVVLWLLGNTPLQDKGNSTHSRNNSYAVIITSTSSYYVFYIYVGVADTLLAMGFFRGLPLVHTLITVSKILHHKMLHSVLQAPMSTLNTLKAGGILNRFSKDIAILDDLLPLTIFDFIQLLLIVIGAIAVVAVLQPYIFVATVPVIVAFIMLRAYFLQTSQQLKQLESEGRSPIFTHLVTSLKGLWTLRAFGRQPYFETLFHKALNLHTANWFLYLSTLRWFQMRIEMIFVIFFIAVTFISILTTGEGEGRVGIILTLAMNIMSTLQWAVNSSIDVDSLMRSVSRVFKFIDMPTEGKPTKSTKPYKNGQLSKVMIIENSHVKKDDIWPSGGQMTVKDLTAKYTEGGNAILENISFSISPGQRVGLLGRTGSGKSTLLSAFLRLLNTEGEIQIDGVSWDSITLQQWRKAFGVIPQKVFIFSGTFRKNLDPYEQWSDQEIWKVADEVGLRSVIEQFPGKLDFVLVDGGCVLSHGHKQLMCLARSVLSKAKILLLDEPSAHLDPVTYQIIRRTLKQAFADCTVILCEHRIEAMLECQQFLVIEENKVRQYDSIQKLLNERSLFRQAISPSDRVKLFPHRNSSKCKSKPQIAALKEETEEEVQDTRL
In short: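 Potentiator read-out as 1−F/F0, F taken 36 s after iodide addition, EC50 fitted against compound concentration. Cells: CFBE41o- expressing ΔF508 CFTR plus halide-sensitive YFP via adenovirus, rescued by 27 °C for 24 h or 24 h modulator at 37 °C.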

CFTR-S549N = biological target: T4, CFTR-S549N (Homo sapiens, UniProt P13569, S549N); assay: YFP-halide influx assay for the CFTR-S549N
T4 construct: expressed in transfected cells
T4 sequence (P13569 whole entry S549N): as the sequence (P13569 whole entry G551D) above, with S549N, D551G counted along it
Description: as §1, §2, §3, §4

CFTR-R117H = biological target: T5, CFTR-R117H (Homo sapiens, UniProt P13569, R117H); assay: YFP-halide influx assay for the CFTR-R117H
T5 construct: expressed in transfected cells
T5 sequence (P13569 whole entry R117H): as the sequence (P13569 whole entry G551D) above, with R117H, D551G counted along it
Description: as §1, §2, §3, §4

CFTR-G178R = biological target: T6, CFTR-G178R (Homo sapiens, UniProt P13569, G178R); assay: YFP-halide influx assay for the CFTR-G178R
T6 construct: expressed in transfected cells
T6 sequence (P13569 whole entry G178R): as the sequence (P13569 whole entry G551D) above, with G178R, D551G counted along it
Description: as §1, §2, §3, §4

Compound	EC50 (CFTR G551D mutant)	EC50 (CFTR-G1349D)	EC50 (CFTR ΔF508 mutant)	EC50 (CFTR-S549N)	EC50 (CFTR-R117H)	EC50 (CFTR-G178R)	EC50 (CFTR G551D mutant; class symbol)	EC50 (CFTR-G1349D; class symbol)
NC(=O)c1cc(S(=O)(=O)c2ccccc2OC(F)(F)F)sc1NC(=O)C1(CO)CC1 [Compound 320, 2-[(1-Hydroxymethyl-cyclopropanecarbonyl)-amino]-5-(2-trifluoromethoxy-benzenesulfonyl)-thiophene-3-carboxylic acid amide]	97.3 nM	31.6 nM	12.9 nM	131 nM	87.7 nM	56.2 nM	–	–
CC(C)(O)C(=O)Nc1sc(S(=O)(=O)c2cc(F)ccc2Br)cc1C(N)=O [Compound 323, 5-(2-Bromo-5-fluoro-benzenesulfonyl)-2-(2-hydroxy-2-methyl-propionylamino)-thiophene-3-carboxylic acid amide]	227 nM	459 nM	9.4 nM	1510 nM	342 nM	189 nM	–	–
CC(O)C(=O)Nc1sc(S(=O)(=O)c2ccc(F)cc2C(F)(F)F)cc1C(N)=O (centres unmarked) [Compound 325, 5-[4-fluoro-2-(trifluoromethyl)phenyl] sulfonyl-2-(2-hydroxypropanoylamino) thiophene-3-carboxamide]	2790 nM	2570 nM	11.1 nM	2140 nM	793 nM	1880 nM	–	–
CC(O)C(=O)Nc1sc(S(=O)(=O)c2ccc(F)cc2Cl)cc1C(N)=O (centres unmarked) [Compound 329, 5-(2-chloro-4-fluoro-phenyl) sulfonyl-2-(2-hydroxypropanoylamino) thiophene-3-carboxamide]	1400 nM	2050 nM	23.2 nM	2690 nM	851 nM	1680 nM	–	–
C[C@H](O)C(=O)Nc1sc(S(=O)(=O)c2ccc(OC(F)(F)F)cc2)cc1C(N)=O [Compound 331, 2-[[(2S)-2-hydroxypropanoyl]amino]-5-[4-(trifluoromethoxy)phenyl] sulfonyl-thiophene-3-carboxamide]	562 nM	117 nM	8 nM	522 nM	95 nM	67.7 nM	–	–
CC(O)C(=O)Nc1sc(S(=O)(=O)c2cc(F)ccc2Cl)cc1C(N)=O (centres unmarked) [Compound 333, 5-(2-chloro-5-fluoro-phenyl)sulfonyl-2-(2-hydroxypropanoylamino) thiophene-3-carboxamide]	754 nM	847 nM	12.6 nM	547 nM	467 nM	620 nM	–	–
CC(O)C(=O)Nc1sc(S(=O)(=O)c2cc(F)ccc2CC(F)(F)F)cc1C(N)=O (centres unmarked) [Compound 334, 5-[5-fluoro-2-(2,2,2-trifluoroethyl)phenyl] sulfonyl-2-(2-hydroxypropanoylamino) thiophene-3-carboxamide]	150 nM	47.7 nM	3.7 nM	336 nM	118 nM	44.5 nM	–	–
CC(C)(O)C(=O)Nc1sc(S(=O)(=O)c2cc(F)ccc2Cl)cc1C(N)=O [Compound 337, 5-(2-chloro-5-fluoro-phenyl)sulfonyl-2-[(2-hydroxy-2-methyl-propanoyl)amino] thiophene-3-carboxamide]	879 nM	48.7 nM	5.5 nM	107 nM	56.3 nM	27.2 nM	–	–
CC(CO)C(=O)Nc1sc(S(=O)(=O)c2ccc(F)cc2Cl)cc1C(N)=O (centres unmarked) [Compound 360, 5-(2-chloro-4-fluoro-phenyl)sulfonyl-2-[(3-hydroxy-2-methyl-propanoyl)amino] thiophene-3-carboxamide]	635 nM	223 nM	9.55 nM	188 nM	49.3 nM	123 nM	–	–
CC(C)(O)C(=O)Nc1sc(S(=O)(=O)c2ccc(C(F)(F)F)cn2)cc1C(N)=O [Compound 363, 2-[(2-hydroxy-2-methyl-propanoyl)amino]-5-[[5-(trifluoromethyl)-2-pyridyl]sulfonyl]thiophene-3-carboxamide]	491 nM	320 nM	28.5 nM	221 nM	90.6 nM	69 nM	–	–
CC(O)C(=O)Nc1sc(S(=O)(=O)c2ccc(C(F)(F)F)cc2F)cc1C(N)=O (centres unmarked) [Compound 368, 5-[2-fluoro-4-(trifluoromethyl)phenyl]sulfonyl-2-(2-hydroxypropanoylamino) thiophene-3-carboxamide]	321 nM	100 nM	17.3 nM	55.5 nM	33.7 nM	32.7 nM	–	–
CC(CO)C(=O)Nc1sc(S(=O)(=O)c2ccc(C(F)(F)F)cc2)cc1C(N)=O (centres unmarked) [Compound 369, 2-[(3-hydroxy-2-methyl-propanoyl)amino]-5-[4-(trifluoromethyl)phenyl] sulfonyl-thiophene-3-carboxamide]	691 nM	195 nM	11.6 nM	445 nM	142 nM	74.6 nM	–	–
COc1ccc(OC(F)(F)F)c(S(=O)(=O)c2cc(C(N)=O)c(NC(=O)C(C)(C)O)s2)c1 [Compound 373, 2-[(2-hydroxy-2-methyl-propanoyl)amino]-5-[5-methoxy-2-(trifluoromethoxy)phenyl]sulfonyl-thiophene-3-carboxamide]	100 nM	31.9 nM	13.2 nM	70.5 nM	46.1 nM	19.7 nM	–	–
CC(C)(O)C(=O)Nc1sc(S(=O)(=O)c2ccc(OC(F)(F)F)cn2)cc1C(N)=O [Compound 374, 2-[(2-hydroxy-2-methyl-propanoyl)amino]-5-[[5-(trifluoromethoxy)-2-pyridyl]sulfonyl] thiophene-3-carboxamide]	1330 nM	807 nM	58.3 nM	1830 nM	365 nM	610 nM	–	–
CC(C)(O)C(=O)Nc1sc(S(=O)(=O)c2ccc(OC(F)(F)F)cc2F)cc1C(N)=O [Compound 375, 5-[2-fluoro-4-(trifluoromethoxy)phenyl] sulfonyl-2-[(2-hydroxy-2-methyl-propanoyl)amino] thiophene-3-carboxamide]	681 nM	146 nM	7.53 nM	199 nM	253 nM	93.4 nM	–	–
CC(C)(O)C(=O)Nc1sc(S(=O)(=O)c2ccc(C(F)(F)F)cc2F)cc1C(N)=O [Compound 376, 5-[2-fluoro-4-(trifluoromethyl)phenyl] sulfonyl-2-[(2-hydroxy-2-methyl-propanoyl)amino] thiophene-3-carboxamide]	522 nM	173 nM	8.07 nM	251 nM	138 nM	86.9 nM	–	–
CC(C)(O)C(=O)Nc1sc(S(=O)(=O)c2ccc(OC(F)(F)F)c(F)c2)cc1C(N)=O [Compound 377, 5-[3-fluoro-4-(trifluoromethoxy)phenyl] sulfonyl-2-[(2-hydroxy-2-methyl-propanoyl)amino] thiophene-3-carboxamide]	711 nM	135 nM	40.5 nM	935 nM	779 nM	241 nM	–	–
C[C@@H](CO)C(=O)Nc1sc(S(=O)(=O)c2ccc(OC(F)(F)F)cc2)cc1C(N)=O [Compound 379, 2-[[(2S)-3-hydroxy-2-methyl-propanoyl]amino]-5-[4-(trifluoromethoxy)phenyl] sulfonyl-thiophene-3-carboxamide]	655 nM	58.6 nM	16.7 nM	155 nM	96.7 nM	75.8 nM	–	–
Cc1c(S(=O)(=O)c2ccc(OC(F)(F)F)cc2)sc(NC(=O)C(C)(C)O)c1C(N)=O [Compound 437, 2-[(2-hydroxy-2-methyl-propanoyl)amino]-4-methyl-5-[4-(trifluoromethoxy)phenyl]sulfonyl-thiophene-3-carboxamide]	–	–	6.24 nM	121 nM	264 nM	–	> 1000 nM	> 1000 nM
